Laboratory results taken from patent US9914737B2, “Triazolopyrimidinone or triazolopyridinone derivatives, and use thereof” (ST PHARM CO., LTD., priority 2014, dated 2018).
Counter-ions that a name gives are not always drawn.

The compounds below were run against T1, tankyrase 1 (Homo sapiens, UniProt O95271) (assay: Analysis of activity of tankyrase 1 (Trevigen kit, ELISA absorbance at 450 nm)). Settings: not given.
T1 construct: purchased Trevigen 4700-096-K
T1 sequence (O95271 1-1327): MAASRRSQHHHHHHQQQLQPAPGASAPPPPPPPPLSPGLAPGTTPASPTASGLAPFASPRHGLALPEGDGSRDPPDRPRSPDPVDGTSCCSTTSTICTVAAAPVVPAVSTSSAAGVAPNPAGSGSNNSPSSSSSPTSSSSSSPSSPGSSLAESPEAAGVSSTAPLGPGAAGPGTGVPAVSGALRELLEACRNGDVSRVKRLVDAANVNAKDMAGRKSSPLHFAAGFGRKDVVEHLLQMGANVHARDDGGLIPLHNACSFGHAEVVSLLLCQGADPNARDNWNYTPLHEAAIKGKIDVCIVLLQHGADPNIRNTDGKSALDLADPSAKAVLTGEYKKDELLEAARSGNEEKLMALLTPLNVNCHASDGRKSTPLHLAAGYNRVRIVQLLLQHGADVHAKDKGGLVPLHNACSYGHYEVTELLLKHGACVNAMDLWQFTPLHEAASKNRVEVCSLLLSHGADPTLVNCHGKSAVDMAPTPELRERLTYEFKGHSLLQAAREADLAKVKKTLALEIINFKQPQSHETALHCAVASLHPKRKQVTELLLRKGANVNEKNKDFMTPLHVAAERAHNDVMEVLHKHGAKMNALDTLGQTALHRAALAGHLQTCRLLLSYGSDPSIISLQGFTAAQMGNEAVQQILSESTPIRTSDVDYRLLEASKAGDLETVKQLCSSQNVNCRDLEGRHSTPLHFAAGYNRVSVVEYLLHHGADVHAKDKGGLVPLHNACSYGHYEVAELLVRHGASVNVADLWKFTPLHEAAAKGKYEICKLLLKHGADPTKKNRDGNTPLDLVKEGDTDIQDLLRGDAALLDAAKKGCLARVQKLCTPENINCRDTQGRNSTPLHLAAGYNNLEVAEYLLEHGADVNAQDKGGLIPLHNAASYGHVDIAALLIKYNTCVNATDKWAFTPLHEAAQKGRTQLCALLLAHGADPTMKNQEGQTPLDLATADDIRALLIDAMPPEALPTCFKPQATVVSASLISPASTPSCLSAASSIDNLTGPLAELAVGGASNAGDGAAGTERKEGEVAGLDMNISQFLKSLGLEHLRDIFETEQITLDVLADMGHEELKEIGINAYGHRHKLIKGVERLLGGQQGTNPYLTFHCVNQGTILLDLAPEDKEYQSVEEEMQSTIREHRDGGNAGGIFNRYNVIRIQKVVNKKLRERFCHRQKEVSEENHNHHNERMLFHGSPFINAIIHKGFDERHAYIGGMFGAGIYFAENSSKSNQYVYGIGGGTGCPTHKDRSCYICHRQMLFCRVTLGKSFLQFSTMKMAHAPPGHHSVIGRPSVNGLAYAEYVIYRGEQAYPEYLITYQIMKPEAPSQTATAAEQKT
Format: biochemical
Experimental: Activities of novel compounds synthesized according to Examples 1 to 72 against tankyrase 1 were analyzed using a Trevigen kit (Cat. No. 4700-096-K). Poly PAR histone protein-coated 96-well plate, anti-PAR monoclonal antibody and goat anti-mouse IgG-HRP were used for measurement of absorbance by ELISA method. Specifically, 20× I-PAR assay buffer was diluted to 1× by adding water, and 50 μL of the diluted buffer was added to each well of the 96-well plate followed by reacting at rt for 30 min. Then, the supernatant was completely removed from each well and 10 μL of 1× I-PAR assay buffer and 15 μL of assay substrate were added to each well along with 1 μL of a 50× solution of inhibitors to be tested, which were the compounds obtained in the Examples 1 to 72. 10 mUnits/μL of tankyrase 1 enzyme was diluted 50-fold with 1× I-PAR assay buffer and 25 μL of the diluted enzyme was added to each well and reacted while stirring at rt for 30 min. One without any compound of the present invention was used as a positive control and another containing 1× I-PAR assay buffer with the same volume instead of tankyrase 1 enzyme was used as a negative control. Upon completion of the reaction, 200 μL of PBSX, which was prepared by adding 0.1% triton X-100 to PBS, was added and removed and this washing process was repeated twice. Washing was repeated twice more using PBS in the same manner. 5× antibody diluent was diluted with distilled water to 1× concentration, 50 μL of the diluted goat anti-mouse IgG-HRP to 1/2000 was added to each well and reacted while stirring at rt for 30 min. Washes were carried out twice using PBSX and PBS, respectively. After adding 50 μL of TACS-sapphire to each well of the plate, the plate was blocked from light to react for 10 min to 15 min and the color of the reaction solution turned blue. To stop the reaction, 50 μL of 0.2N HCl was added to turn the solution yellow. Finally, the absorbance of the resulting solution was measured at 450 nm.

In order of rising IC50:
1. COCCOc1cc(F)c(N2CCN(c3cc4c(nnn4C)c(=O)[nH]3)CC2)c(F)c1 [compound 53, 6-(4-(2,6-Difluoro-4-(2-methoxyethoxy)phenyl)piperazin-1-yl)-1-methyl-1H[1,2,3]triazolo[4,5-c]pyridin-4(5H)-one]  22.7 nM
2. COCCOc1cc(F)c(N2CCN(c3nc4c(nnn4C)c(=O)[nH]3)CC2)c(F)c1 [compound 2, 5-(4-(2,6-Difluoro-4-(2-methoxyethoxy)phenyl)piperazin-1-yl)-3-methyl-3H-[1,2,3]triazolo[4,5-d]pyrimidin-7(6H)-one]  29.9 nM
3. Cn1nnc2c(=O)[nH]c(N3CCN(c4ccccc4F)CC3)nc21 [compound 1, 5-(4-(2-Fluorophenyl)piperazin-1-yl)-3-methyl-3H-[1,2,3]triazolo[4,5-d]pyrimidin-7(6H)-one]  66.7 nM

Same assay, conditions: tankyrase 1 enzyme, Trevigen kit Cat. No. 4700-096-K, 30 min at rt; read-out: TNKS1 (IC50)

In order of falling IC50:
1. Cn1nnc2c(=O)[nH]c(N3CCC(c4nnn[nH]4)CC3)nc21 [compound 26, 5-(4-(1H-tetrazol-5-yl)piperidin-1-yl)-3-methyl-3H-[1,2,3]triazolo[4,5-d]pyrimidin-7(6H)-one]  411 nM
2. COCCOc1cc(F)c(C2=CCN(c3nc4c(nnn4C)c(=O)[nH]3)CC2)c(F)c1 [compound 44, 5-(4-(2,6-Difluoro-4-(2-methoxyethoxy)phenyl)-5,6-dihydropyridin-1(2H)-yl)-3-methyl-3H-[1,2,3]triazolo[4,5-d]pyrimidin-7(6H)-one]  52.9 nM
3. Cn1nnc2c(=O)[nH]c(N3CCN(c4c(F)cc(OCC(=O)N5CCCCC5)cc4F)CC3)nc21 [compound 35, 5-(4-(2,6-Difluoro-4-(2-oxo-2-(piperidin-1-yl)ethoxy)phenyl)piperazin-1-yl)-3-methyl-3H-[1,2,3]triazolo[4,5-d]pyrimidin-7(6H)-one]  48.7 nM
4. CN1CCN(CCOc2cc(F)c(N3CCN(c4nc5c(nnn5C)c(=O)[nH]4)CC3)c(F)c2)C(=O)C1 [compound 38, 5-(4-(2,6-Difluoro-4-(2-(4-methyl-2-oxopiperazin-1-yl)ethoxy)phenyl)piperazin-1-yl)-3-methyl-3H-[1,2,3]triazolo[4,5-d]pyrimidin-7(6H)-one]  43 nM
5. CN1CCN(Cc2cc(F)c(N3CCN(c4nc5c(nnn5C)c(=O)[nH]4)CC3)c(F)c2)CC1 [compound 14, 5-(4-(2,6-Difluoro-4-((4-methylpiperazin-1-yl)methyl)phenyl)piperazin-1-yl)-3-methyl-3H-[1,2,3]triazolo[4,5-d]pyrimidin-7(6H)-one]  41.5 nM
6. Cn1nnc2c(=O)[nH]c(N3CCN(c4c(F)cc(OCC(=O)N5CCCC5)cc4F)CC3)nc21 [compound 36, 5-(4-(2,6-Difluoro-4-(2-oxo-2-(pyrrolidin-1-yl)ethoxy)phenyl)piperazin-1-yl)-3-methyl-3H-[1,2,3]triazolo[4,5-d]pyrimidin-7(6H)-one]  39.6 nM
7. Cn1nnc2c(=O)[nH]c(N3CCN(c4c(F)cc(OCCN5CCOCC5)cc4F)CC3)nc21 [compound 4, 5-(4-(2,6-Difluoro-4-(2-morpholinoethoxy)phenyl)piperazin-1-yl)-3-methyl-3H-[1,2,3]triazolo[4,5-d]pyrimidin-7(6H)-one]  38.6 nM
8. C[C@@H](N)C(=O)OCCOc1cc(F)c(N2CCN(c3nc4c(nnn4C)c(=O)[nH]3)CC2)c(F)c1 [compound 10, (R)-2-(3,5-difluoro-4-(4-(3-methyl-7-oxo-6,7-dihydro-3H-[1,2,3]triazolo[4,5-d]pyrimidin-5-yl)piperazin-1-yl)phenoxy)ethyl2-aminopropanoate hydrochloride]  32 nM
9. Cn1nnc2c(=O)[nH]c(N3CCN(c4c(F)cc(OCCN5CCCCC5)cc4F)CC3)cc21 [compound 55, 6-(4-(2,6-Difluoro-4-(2-(piperidin-1-yl)ethoxy)phenyl)piperazin-1-yl)-1-methyl-1H-[1,2,3]triazolo[4,5-c]pyridin-4(5H)-one]  29.3 nM
10. CN1CCN(Cc2cc(F)c(N3CCN(c4cc5c(nnn5C)c(=O)[nH]4)CC3)c(F)c2)CC1 [compound 61, 6-(4-(2,6-Difluoro-4-((4-methylpiperazin-1-yl)methyl)phenyl)piperazin-1-yl)-1-methyl-1H-[1,2,3]triazolo[4,5-c]pyridin-4(5H)-one]  28.2 nM
11. Cn1nnc2c(=O)[nH]c(N3CCN(c4c(F)cc(CN5CCOCC5)cc4F)CC3)nc21 [compound 13, 5-(4-(2,6-Difluoro-4-(morpholinomethyl)phenyl)piperazin-1-yl)-3-methyl-3H-[1,2,3]triazolo[4,5-d]pyrimidin-7(6H)-one]  28 nM
12. CN(C)CCOc1cc(F)c(N2CCN(c3cc4c(nnn4C)c(=O)[nH]3)CC2)c(F)c1 [compound 56, 6-(4-(4-(2-(Dimethylamino)ethoxy)-2,6-difluorophenyl)piperazin-1-yl)-1-methyl-1H-[1,2,3]triazolo[4,5-c]pyridin-4(5H)-one]  27.5 nM
13. Cn1nnc2c(=O)[nH]c(N3CCN(c4c(F)cc(OCCN)cc4F)CC3)cc21 [compound 71, 6-(4-(4-(2-Aminoethoxy)-2,6-difluorophenyl)piperazin-1-yl)-1-methyl-1H-[1,2,3]triazolo[4,5-c]pyridin-4(5H)-one]  24.9 nM
14. Cn1nnc2c(=O)[nH]c(N3CCN(c4c(F)cc(OCCCN5CCCCC5)cc4F)CC3)cc21 [compound 69, 6-(4-(2,6-Difluoro-4-(3-(piperidin-1-yl)propoxy)phenyl)piperazin-1-yl)-1-methyl-1H-[1,2,3]triazolo[4,5-c]pyridin-4(5H)-one]  19.1 nM
15. CC(O)c1cc(F)c(N2CCN(c3nc4c(nnn4C)c(=O)[nH]3)CC2)c(F)c1 (stereo not drawn) [compound 17, 5-(4-(2,6-Difluoro-4-(1-hydroxyethyl)phenyl)piperazin-1-yl)-3-methyl-3H-[1,2,3]triazolo[4,5-d]pyrimidin-7(6H)-one]  17.6 nM
16. CN1CCN(CCOc2cc(F)c(N3CCN(c4cc5c(nnn5C)c(=O)[nH]4)CC3)c(F)c2)CC1 [compound 68, 6-(4-(2,6-Difluoro-4-(2-(4-methylpiperazin-1-yl)ethoxy)phenyl)piperazin-1-yl)-1-methyl-1H-[1,2,3]triazolo[4,5-c]pyridin-4(5H)-one]  14.2 nM
17. Cn1nnc2c(=O)[nH]c(N3CCN(c4c(F)cc(OCCN5CCCCC5)cc4F)CC3)nc21 [compound 5, 5-(4-(2,6-Difluoro-4-(2-(piperidin-1-yl)ethoxy)phenyl)piperazin-1-yl)-3-methyl-3H-[1,2,3]triazolo[4,5-d]pyrimidin-7(6H)-one]  14.2 nM
18. C[C@H](N)C(=O)OCCOc1cc(F)c(N2CCN(c3cc4c(nnn4C)c(=O)[nH]3)CC2)c(F)c1 [compound 58, (S)-2-(3,5-difluoro-4-(4-(1-methyl-4-oxo-4,5-dihydro-1H-[1,2,3]triazolo[4,5-c]pyridin-6-yl)piperazin-1-yl)phenoxy)ethyl2-aminopropanoate hydrochloride]  13.4 nM
